# Entries after “also recorded” stand apart in the source; their conditions may differ.
# Assays:
# FVB mice = assay: Imiquimod-induced FVB mouse lupus model; assay type: in vivo; conditions: 200 mg/kg P.O. BID; Imiquimod treated FVB mice
# Method: Age-matched female FVB mice were purchased from Jackson Laboratory and randomized into experimental groups upon receipt. Ten-week-old female FVB mice were treated with 10 mg of 5% Imiquimod cream (Taro Pharmaceuticals, USA, Hawthorne, N.Y.) applied to the left ear (three doses per week for the duration of the study). […] Proteinuria and survival were tracked through day 91. Plasma PK measurement was done at day 85 prior to the end of the study.
# [1] = tested on: rhCD40L induced ICOSL expression on human B cells; assay: ICOSL expression on human B cell assay; assay type: cell-based; conditions: B-cell, ICOSL MFI by FACS, mean ± SD, read-out: CD40-induced ICOSL IC50
# Method: Human B cells were isolated from whole blood. B cells were enriched by RosetteSep protocol (Stem Cell Technologies), and then isolated using Human B cell isolation kit II (Miltenyi). […] Mean fluorescent intensity (MFI) of CD40L and BAFF induced ICOSL expression was measured by flow cytometry on cells stained with anti-CD20 and anti-ICOSL, using a FACS Calibur instrument (BD). Plots and IC50 measurements were generated using GraphPad Prism Software.
# RSK2 = target: T1, RSK2 (Homo sapiens, UniProt P51812); assay: SelectScreen kinase panel; assay type: biochemical
# T1 construct: purchased Invitrogen / ThermoFisher SelectScreen
# How it was run: (§1)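 Outsourced broad profiling: Invitrogen SelectScreen. Assay type by kinase is a Z′-LYTE peptide phosphorylation, an Adapta ADP quantitation, or a LanthaScreen ATP-site competitive binding assay. Reported: averaged % inhibition per kinase.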
# CDK7/cyclinH = target: T2, CDK7/cyclinH (Homo sapiens, UniProt P50613); assay: SelectScreen kinase panel; assay type: biochemical
# T2 construct: purchased Invitrogen / ThermoFisher SelectScreen
# How it was run: as §1
# EphA7 = target: T3, EphA7 (Homo sapiens, UniProt Q15375); assay: SelectScreen kinase panel; assay type: biochemical
# T3 construct: purchased Invitrogen / ThermoFisher SelectScreen
# How it was run: as §1
# TYK2 = target: T4, TYK2 (Homo sapiens, UniProt P29597); assay: SelectScreen kinase panel; assay type: biochemical
# T4 construct: purchased Invitrogen / ThermoFisher SelectScreen
# T4 sequence (P29597 whole entry): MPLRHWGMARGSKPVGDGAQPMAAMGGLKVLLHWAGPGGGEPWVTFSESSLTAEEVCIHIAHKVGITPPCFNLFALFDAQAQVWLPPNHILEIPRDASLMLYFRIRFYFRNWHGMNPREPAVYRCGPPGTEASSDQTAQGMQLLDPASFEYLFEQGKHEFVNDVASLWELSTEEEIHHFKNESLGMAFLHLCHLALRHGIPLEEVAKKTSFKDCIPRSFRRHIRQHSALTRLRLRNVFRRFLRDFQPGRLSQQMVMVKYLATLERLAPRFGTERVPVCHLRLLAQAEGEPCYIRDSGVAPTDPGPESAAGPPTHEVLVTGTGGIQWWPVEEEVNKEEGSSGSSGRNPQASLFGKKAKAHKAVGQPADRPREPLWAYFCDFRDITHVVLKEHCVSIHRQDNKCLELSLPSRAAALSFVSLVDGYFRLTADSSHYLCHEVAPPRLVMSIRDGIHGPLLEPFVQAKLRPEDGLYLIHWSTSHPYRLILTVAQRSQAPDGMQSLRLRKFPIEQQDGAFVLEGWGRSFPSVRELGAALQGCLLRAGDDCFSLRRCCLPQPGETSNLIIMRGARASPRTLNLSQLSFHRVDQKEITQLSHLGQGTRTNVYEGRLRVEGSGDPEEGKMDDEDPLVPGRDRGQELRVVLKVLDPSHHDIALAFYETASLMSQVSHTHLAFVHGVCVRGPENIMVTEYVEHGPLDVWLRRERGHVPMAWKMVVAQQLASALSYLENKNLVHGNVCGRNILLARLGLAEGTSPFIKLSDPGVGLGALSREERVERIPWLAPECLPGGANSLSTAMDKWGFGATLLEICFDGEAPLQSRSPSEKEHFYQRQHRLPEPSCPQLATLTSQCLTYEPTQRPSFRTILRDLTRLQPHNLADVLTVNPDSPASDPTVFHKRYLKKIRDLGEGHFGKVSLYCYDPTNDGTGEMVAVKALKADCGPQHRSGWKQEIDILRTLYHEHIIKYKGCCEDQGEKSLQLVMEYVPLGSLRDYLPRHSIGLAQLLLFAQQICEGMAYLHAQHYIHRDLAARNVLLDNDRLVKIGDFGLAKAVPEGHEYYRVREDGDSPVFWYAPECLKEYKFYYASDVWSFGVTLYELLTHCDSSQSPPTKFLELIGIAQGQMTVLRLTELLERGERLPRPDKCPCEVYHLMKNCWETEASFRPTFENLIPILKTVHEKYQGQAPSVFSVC
# How it was run: as §1
# GSK3_beta = target: T5, GSK3_beta (Homo sapiens, UniProt P49841); assay: SelectScreen kinase panel; assay type: biochemical
# T5 construct: purchased Invitrogen / ThermoFisher SelectScreen
# T5 sequence (P49841 whole entry): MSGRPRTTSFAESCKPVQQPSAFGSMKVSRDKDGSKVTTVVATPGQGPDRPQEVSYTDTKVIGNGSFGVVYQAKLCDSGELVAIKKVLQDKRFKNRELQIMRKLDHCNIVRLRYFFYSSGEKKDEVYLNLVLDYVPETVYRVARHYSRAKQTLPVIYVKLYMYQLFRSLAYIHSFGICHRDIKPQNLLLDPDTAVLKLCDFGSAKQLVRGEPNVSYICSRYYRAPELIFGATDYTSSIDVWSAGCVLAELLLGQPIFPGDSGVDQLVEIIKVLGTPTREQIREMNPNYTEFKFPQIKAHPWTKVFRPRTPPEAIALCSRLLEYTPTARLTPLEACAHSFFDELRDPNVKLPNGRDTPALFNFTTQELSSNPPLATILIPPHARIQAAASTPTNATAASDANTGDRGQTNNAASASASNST
# How it was run: as §1
# Yes = target: T6, Yes (Homo sapiens, UniProt P07947); assay: SelectScreen kinase panel; assay type: biochemical
# T6 construct: purchased Invitrogen / ThermoFisher SelectScreen
# How it was run: as §1
# KDR = target: T7, KDR (Homo sapiens, UniProt P35968); assay: SelectScreen kinase panel; assay type: biochemical
# T7 construct: purchased Invitrogen / ThermoFisher SelectScreen
# How it was run: as §1
# Ron = target: T8, Ron (Homo sapiens, UniProt Q04912); assay: SelectScreen kinase panel; assay type: biochemical
# T8 construct: purchased Invitrogen / ThermoFisher SelectScreen
# How it was run: as §1
# PDGFR_alpha = target: T9, PDGFR_alpha (Homo sapiens, UniProt P16234); assay: SelectScreen kinase panel; assay type: biochemical
# T9 construct: purchased Invitrogen / ThermoFisher SelectScreen
# T9 sequence (P16234 24-1089): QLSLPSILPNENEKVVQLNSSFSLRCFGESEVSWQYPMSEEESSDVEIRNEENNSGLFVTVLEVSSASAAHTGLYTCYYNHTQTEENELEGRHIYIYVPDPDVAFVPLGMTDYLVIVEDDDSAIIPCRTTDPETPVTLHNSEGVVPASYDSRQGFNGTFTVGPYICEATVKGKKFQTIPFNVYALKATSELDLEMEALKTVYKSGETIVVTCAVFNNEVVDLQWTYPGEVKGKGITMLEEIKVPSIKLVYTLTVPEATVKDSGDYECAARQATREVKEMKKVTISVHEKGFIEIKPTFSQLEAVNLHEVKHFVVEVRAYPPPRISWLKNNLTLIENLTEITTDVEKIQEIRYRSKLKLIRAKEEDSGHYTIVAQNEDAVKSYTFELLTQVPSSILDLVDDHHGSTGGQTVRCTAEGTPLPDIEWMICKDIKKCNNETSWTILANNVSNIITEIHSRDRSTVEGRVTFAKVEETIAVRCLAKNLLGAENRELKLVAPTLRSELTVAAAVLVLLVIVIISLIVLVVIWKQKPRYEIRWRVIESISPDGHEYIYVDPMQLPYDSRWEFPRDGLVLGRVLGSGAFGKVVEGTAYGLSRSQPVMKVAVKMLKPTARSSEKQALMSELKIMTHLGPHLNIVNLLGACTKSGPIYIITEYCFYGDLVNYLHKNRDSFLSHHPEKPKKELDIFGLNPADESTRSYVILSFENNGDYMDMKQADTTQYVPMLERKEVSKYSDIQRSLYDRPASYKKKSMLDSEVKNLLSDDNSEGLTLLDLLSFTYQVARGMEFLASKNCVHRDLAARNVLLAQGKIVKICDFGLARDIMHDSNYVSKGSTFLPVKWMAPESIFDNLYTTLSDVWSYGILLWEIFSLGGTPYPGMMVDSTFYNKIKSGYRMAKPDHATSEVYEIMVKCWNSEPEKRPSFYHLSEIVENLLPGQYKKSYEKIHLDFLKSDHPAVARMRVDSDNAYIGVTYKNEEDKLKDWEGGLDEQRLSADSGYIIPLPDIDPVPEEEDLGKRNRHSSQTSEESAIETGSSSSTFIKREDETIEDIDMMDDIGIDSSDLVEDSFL
# How it was run: as §1
# MST1 = target: T10, MST1 (Homo sapiens, UniProt Q13043); assay: SelectScreen kinase panel; assay type: biochemical
# T10 construct: purchased Invitrogen / ThermoFisher SelectScreen
# T10 sequence (Q13043 whole entry): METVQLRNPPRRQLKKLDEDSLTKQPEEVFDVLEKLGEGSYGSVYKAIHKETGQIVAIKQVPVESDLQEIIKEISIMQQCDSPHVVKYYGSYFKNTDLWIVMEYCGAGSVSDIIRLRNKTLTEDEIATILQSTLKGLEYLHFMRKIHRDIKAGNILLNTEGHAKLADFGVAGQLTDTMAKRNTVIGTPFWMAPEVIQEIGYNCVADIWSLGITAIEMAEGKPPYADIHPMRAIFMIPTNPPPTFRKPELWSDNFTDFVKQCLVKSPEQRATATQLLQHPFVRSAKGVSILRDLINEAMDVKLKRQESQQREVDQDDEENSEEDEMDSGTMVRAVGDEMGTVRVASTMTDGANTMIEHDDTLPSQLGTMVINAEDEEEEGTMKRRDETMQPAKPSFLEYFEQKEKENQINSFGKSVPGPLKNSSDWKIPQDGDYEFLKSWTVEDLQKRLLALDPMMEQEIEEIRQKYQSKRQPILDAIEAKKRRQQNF
# How it was run: as §1
# PRK1 = target: T11, PRK1 (Homo sapiens, UniProt Q16512); assay: SelectScreen kinase panel; assay type: biochemical
# T11 construct: purchased Invitrogen / ThermoFisher SelectScreen
# How it was run: as §1
# Blk = target: T12, Blk (Homo sapiens, UniProt P51451); assay: SelectScreen kinase panel; assay type: biochemical
# T12 construct: purchased Invitrogen / ThermoFisher SelectScreen
# T12 sequence (P51451 whole entry): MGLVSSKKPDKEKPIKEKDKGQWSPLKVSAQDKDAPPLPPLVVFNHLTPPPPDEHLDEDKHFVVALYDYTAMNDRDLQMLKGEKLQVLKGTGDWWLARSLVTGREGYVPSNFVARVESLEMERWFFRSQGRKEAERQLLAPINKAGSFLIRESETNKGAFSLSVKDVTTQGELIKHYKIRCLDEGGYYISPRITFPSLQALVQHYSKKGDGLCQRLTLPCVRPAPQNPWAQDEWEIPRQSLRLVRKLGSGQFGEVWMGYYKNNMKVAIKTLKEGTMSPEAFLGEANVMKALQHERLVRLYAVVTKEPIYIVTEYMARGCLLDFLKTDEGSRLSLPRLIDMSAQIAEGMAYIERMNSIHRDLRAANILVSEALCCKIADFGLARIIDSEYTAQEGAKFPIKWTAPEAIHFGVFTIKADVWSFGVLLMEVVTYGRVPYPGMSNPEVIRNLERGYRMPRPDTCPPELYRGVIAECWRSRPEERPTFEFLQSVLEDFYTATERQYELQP
# How it was run: as §1
# MAPKAPK2 = target: T13, MAPKAPK2 (Homo sapiens, UniProt P49137); assay: SelectScreen kinase panel; assay type: biochemical
# T13 construct: purchased Invitrogen / ThermoFisher SelectScreen
# T13 sequence (P49137 whole entry): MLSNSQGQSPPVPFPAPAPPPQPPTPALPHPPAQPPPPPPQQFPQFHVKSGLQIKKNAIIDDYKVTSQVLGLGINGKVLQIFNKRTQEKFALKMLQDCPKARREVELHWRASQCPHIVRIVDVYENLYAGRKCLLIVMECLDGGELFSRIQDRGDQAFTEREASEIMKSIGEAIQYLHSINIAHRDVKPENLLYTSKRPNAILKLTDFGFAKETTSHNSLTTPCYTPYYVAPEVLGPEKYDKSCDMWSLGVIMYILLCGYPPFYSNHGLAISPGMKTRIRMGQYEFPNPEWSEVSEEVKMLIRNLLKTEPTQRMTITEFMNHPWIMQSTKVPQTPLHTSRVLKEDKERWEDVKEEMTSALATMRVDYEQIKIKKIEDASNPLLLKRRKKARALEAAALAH
# How it was run: as §1
# EphA8 = target: T14, EphA8 (Homo sapiens, UniProt P29322); assay: SelectScreen kinase panel; assay type: biochemical
# T14 construct: purchased Invitrogen / ThermoFisher SelectScreen
# How it was run: as §1
# Frk = target: T15, Frk (Homo sapiens, UniProt P42685); assay: SelectScreen kinase panel; assay type: biochemical
# T15 construct: purchased Invitrogen / ThermoFisher SelectScreen
# T15 sequence (P42685 whole entry): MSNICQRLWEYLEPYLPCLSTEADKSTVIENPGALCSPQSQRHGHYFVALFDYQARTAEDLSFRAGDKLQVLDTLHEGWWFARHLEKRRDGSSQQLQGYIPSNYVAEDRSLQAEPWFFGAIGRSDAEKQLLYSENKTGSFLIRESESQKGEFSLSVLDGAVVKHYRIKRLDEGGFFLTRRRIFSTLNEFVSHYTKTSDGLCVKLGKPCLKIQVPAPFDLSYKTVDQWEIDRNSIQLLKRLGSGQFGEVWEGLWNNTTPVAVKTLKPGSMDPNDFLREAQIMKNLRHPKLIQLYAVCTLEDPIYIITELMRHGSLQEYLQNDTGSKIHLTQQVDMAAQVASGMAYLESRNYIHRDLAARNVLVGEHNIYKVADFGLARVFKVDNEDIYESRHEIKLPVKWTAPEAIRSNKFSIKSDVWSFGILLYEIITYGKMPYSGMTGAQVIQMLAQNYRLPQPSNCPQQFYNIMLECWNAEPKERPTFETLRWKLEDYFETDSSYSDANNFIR
# How it was run: as §1
# P38_delta = target: T16, P38_delta (Homo sapiens, UniProt O15264); assay: SelectScreen kinase panel; assay type: biochemical
# T16 construct: purchased Invitrogen / ThermoFisher SelectScreen
# T16 sequence (O15264 whole entry): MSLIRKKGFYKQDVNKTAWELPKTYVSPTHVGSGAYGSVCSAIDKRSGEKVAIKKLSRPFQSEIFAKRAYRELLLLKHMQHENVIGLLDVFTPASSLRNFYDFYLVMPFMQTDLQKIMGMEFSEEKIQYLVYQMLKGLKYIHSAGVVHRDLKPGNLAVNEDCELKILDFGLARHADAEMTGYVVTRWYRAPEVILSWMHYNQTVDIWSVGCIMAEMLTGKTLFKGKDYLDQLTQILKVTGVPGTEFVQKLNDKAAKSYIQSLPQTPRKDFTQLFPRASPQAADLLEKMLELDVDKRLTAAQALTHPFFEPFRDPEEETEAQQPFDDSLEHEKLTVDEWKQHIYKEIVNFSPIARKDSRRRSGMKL
# How it was run: as §1
# CaMKII_beta = target: T17, CaMKII_beta (Homo sapiens, UniProt Q13554); assay: SelectScreen kinase panel; assay type: biochemical
# T17 construct: purchased Invitrogen / ThermoFisher SelectScreen
# How it was run: as §1
# PLK2 = target: T18, PLK2 (Homo sapiens, UniProt Q9NYY3); assay: SelectScreen kinase panel; assay type: biochemical
# T18 construct: purchased Invitrogen / ThermoFisher SelectScreen
# How it was run: as §1
# PIM1 = target: T19, PIM1 (Homo sapiens, UniProt P11309); assay: SelectScreen kinase panel; assay type: biochemical
# T19 construct: purchased Invitrogen / ThermoFisher SelectScreen
# How it was run: as §1
smiles,measurement,setting,value
COc1cc(C(N)=O)nc(-c2cccc(C#C[C@]3(O)CCN(C)C3=O)c2)c1 [NIK SMI1],survival,FVB mice,efficacious; also recorded: improved survival
same,IC50,[1],84.6 nM
same,inhibition at 1 µM,RSK2,7%
same,inhibition at 1 µM,CDK7/cyclinH,-5.5%
same,inhibition at 1 µM,EphA7,5.1%
same,inhibition at 1 µM,TYK2,2%
same,inhibition at 1 µM,GSK3_beta,5%
same,inhibition at 1 µM,Yes,0.5%
same,inhibition at 1 µM,KDR,-1.5%
same,inhibition at 1 µM,Ron,13%
same,inhibition at 1 µM,PDGFR_alpha,-4.5%
same,inhibition at 1 µM,MST1,11.5%
same,inhibition at 1 µM,PRK1,5.5%
same,inhibition at 1 µM,Blk,-10.5%
same,inhibition at 1 µM,MAPKAPK2,-5%
same,inhibition at 1 µM,EphA8,-3.5%
same,inhibition at 1 µM,Frk,18%
same,inhibition at 1 µM,P38_delta,12.5%
same,inhibition at 1 µM,CaMKII_beta,30.5%
same,inhibition at 1 µM,PLK2,4%
same,inhibition at 1 µM,PIM1,-0.5%

# — article PMC5766581, “NF-κB inducing kinase is a therapeutic target for systemic lupus erythematosus” (Nature Communications, 2018)
